{"source": "BigSolDB 2.1", "data": [{"smiles": "CCCCN(CCCC)CC(O)c1cc(Cl)cc2c1-c1ccc(Cl)cc1/C2=C/c1ccc(Cl)cc1", "note": "(stereo not given)", "values": [{"measurement": "solubility (mole fraction)", "setting": "in ethyl acetate, 278.15 K", "result": 0.00178}, {"measurement": "solubility (mole fraction)", "setting": "in ethyl acetate, 283.15 K", "result": 0.00234}, {"measurement": "solubility (mole fraction)", "setting": "in ethyl acetate, 288.15 K", "result": 0.00317}, {"measurement": "solubility (mole fraction)", "setting": "in ethyl acetate, 293.15 K", "result": 0.00411}, {"measurement": "solubility (mole fraction)", "setting": "in ethyl acetate, 298.15 K", "result": 0.0054}, {"measurement": "solubility (mole fraction)", "setting": "in ethyl acetate, 303.15 K", "result": 0.00693}, {"measurement": "solubility (mole fraction)", "setting": "in ethyl acetate, 308.15 K", "result": 0.00903}, {"measurement": "solubility (mole fraction)", "setting": "in ethyl acetate, 313.15 K", "result": 0.0116}, {"measurement": "solubility (mole fraction)", "setting": "in ethyl acetate, 318.15 K", "result": 0.0152}, {"measurement": "solubility (mole fraction)", "setting": "in ethyl acetate, 323.15 K", "result": 0.0201}, {"measurement": "solubility (mole fraction)", "setting": "in methanol, 278.15 K", "result": "1.34e-05"}, {"measurement": "solubility (mole fraction)", "setting": "in methanol, 283.15 K", "result": "1.7e-05"}, {"measurement": "solubility (mole fraction)", "setting": "in methanol, 288.15 K", "result": "2.28e-05"}, {"measurement": "solubility (mole fraction)", "setting": "in methanol, 293.15 K", "result": "3.04e-05"}, {"measurement": "solubility (mole fraction)", "setting": "in methanol, 298.15 K", "result": "3.82e-05"}, {"measurement": "solubility (mole fraction)", "setting": "in methanol, 303.15 K", "result": "4.97e-05"}, {"measurement": "solubility (mole fraction)", "setting": "in methanol, 308.15 K", "result": "6.3e-05"}, {"measurement": "solubility (mole fraction)", "setting": "in methanol, 313.15 K", "result": "8.2e-05"}, {"measurement": "solubility (mole fraction)", "setting": "in methanol, 318.15 K", "result": 0.000106}, {"measurement": "solubility (mole fraction)", "setting": "in methanol, 323.15 K", "result": 0.000136}, {"measurement": "solubility (mole fraction)", "setting": "in n-butyl acetate, 278.15 K", "result": 0.00425}, {"measurement": "solubility (mole fraction)", "setting": "in n-butyl acetate, 283.15 K", "result": 0.00533}, {"measurement": "solubility (mole fraction)", "setting": "in n-butyl acetate, 288.15 K", "result": 0.00674}, {"measurement": "solubility (mole fraction)", "setting": "in n-butyl acetate, 293.15 K", "result": 0.00866}, {"measurement": "solubility (mole fraction)", "setting": "in n-butyl acetate, 298.15 K", "result": 0.0108}, {"measurement": "solubility (mole fraction)", "setting": "in n-butyl acetate, 303.15 K", "result": 0.0138}, {"measurement": "solubility (mole fraction)", "setting": "in n-butyl acetate, 308.15 K", "result": 0.0176}, {"measurement": "solubility (mole fraction)", "setting": "in n-butyl acetate, 313.15 K", "result": 0.0223}, {"measurement": "solubility (mole fraction)", "setting": "in n-butyl acetate, 318.15 K", "result": 0.0286}, {"measurement": "solubility (mole fraction)", "setting": "in n-butyl acetate, 323.15 K", "result": 0.036}, {"measurement": "solubility (mole fraction)", "setting": "in n-pentyl acetate, 278.15 K", "result": 0.00475}, {"measurement": "solubility (mole fraction)", "setting": "in n-pentyl acetate, 283.15 K", "result": 0.00656}, {"measurement": "solubility (mole fraction)", "setting": "in n-pentyl acetate, 288.15 K", "result": 0.00849}, {"measurement": "solubility (mole fraction)", "setting": "in n-pentyl acetate, 293.15 K", "result": 0.011}, {"measurement": "solubility (mole fraction)", "setting": "in n-pentyl acetate, 298.15 K", "result": 0.0137}, {"measurement": "solubility (mole fraction)", "setting": "in n-pentyl acetate, 303.15 K", "result": 0.0168}, {"measurement": "solubility (mole fraction)", "setting": "in n-pentyl acetate, 308.15 K", "result": 0.0212}, {"measurement": "solubility (mole fraction)", "setting": "in n-pentyl acetate, 313.15 K", "result": 0.0253}, {"measurement": "solubility (mole fraction)", "setting": "in n-pentyl acetate, 318.15 K", "result": 0.0327}, {"measurement": "solubility (mole fraction)", "setting": "in n-pentyl acetate, 323.15 K", "result": 0.0407}, {"measurement": "solubility (mole fraction)", "setting": "in n-propyl acetate, 278.15 K", "result": 0.00281}, {"measurement": "solubility (mole fraction)", "setting": "in n-propyl acetate, 283.15 K", "result": 0.00366}, {"measurement": "solubility (mole fraction)", "setting": "in n-propyl acetate, 288.15 K", "result": 0.00486}, {"measurement": "solubility (mole fraction)", "setting": "in n-propyl acetate, 293.15 K", "result": 0.00656}, {"measurement": "solubility (mole fraction)", "setting": "in n-propyl acetate, 298.15 K", "result": 0.00841}, {"measurement": "solubility (mole fraction)", "setting": "in n-propyl acetate, 303.15 K", "result": 0.0109}, {"measurement": "solubility (mole fraction)", "setting": "in n-propyl acetate, 308.15 K", "result": 0.0139}, {"measurement": "solubility (mole fraction)", "setting": "in n-propyl acetate, 313.15 K", "result": 0.018}, {"measurement": "solubility (mole fraction)", "setting": "in n-propyl acetate, 318.15 K", "result": 0.0231}, {"measurement": "solubility (mole fraction)", "setting": "in n-propyl acetate, 323.15 K", "result": 0.0305}]}]}
